Experimental findings from ChEMBL document CHEMBL4041501, “Isolation of Acacetin from Calea urticifolia with Inhibitory Properties against Human Monoamine Oxidase-A and -B” (J Nat Prod, 2016) are described below.

The target of data set [1] is T1, Amine oxidase [flavin-containing] A (Homo sapiens, UniProt P21397).
T1 sequence (P21397 whole entry): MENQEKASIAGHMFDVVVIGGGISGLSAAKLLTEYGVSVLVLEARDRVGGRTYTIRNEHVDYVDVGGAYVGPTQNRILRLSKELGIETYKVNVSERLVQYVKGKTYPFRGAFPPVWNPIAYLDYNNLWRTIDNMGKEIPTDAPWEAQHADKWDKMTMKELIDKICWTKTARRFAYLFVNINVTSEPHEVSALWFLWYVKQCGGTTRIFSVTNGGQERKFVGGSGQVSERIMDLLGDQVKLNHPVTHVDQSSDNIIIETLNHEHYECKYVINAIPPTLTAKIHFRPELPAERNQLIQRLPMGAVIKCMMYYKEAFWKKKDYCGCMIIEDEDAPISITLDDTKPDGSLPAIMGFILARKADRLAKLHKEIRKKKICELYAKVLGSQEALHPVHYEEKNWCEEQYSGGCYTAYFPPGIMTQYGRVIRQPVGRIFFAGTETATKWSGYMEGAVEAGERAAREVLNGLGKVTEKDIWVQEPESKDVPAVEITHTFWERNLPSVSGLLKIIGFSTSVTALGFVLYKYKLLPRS
Description: Inhibition of recombinant human MAO-A assessed as reduction in 4-hydroxyquinoline formation using kynuramine as substrate after 20 mins by fluorometric assay.

Data set [2] has as its target T1, Amine oxidase [flavin-containing] A. The data set can be described thus: Competitive inhibition of recombinant human MAO-A assessed as reduction in 4-hydroxyquinoline formation using varying levels of kynuramine as substrate after 20 mins by Lineweaver-Burk plot analysis.
The target is the same in data set [3]. Description: Time-dependent inhibition of recombinant human MAO-A assessed as reduction in 4-hydroxyquinoline formation at 0.5 uM using kynuramine as substrate preincubated up to 15 mins followed by substrate addition by fluorometric assay.
Data set [4] addresses T2, Amine oxidase [flavin-containing] B (Homo sapiens, UniProt P27338).
T2 sequence (P27338 whole entry): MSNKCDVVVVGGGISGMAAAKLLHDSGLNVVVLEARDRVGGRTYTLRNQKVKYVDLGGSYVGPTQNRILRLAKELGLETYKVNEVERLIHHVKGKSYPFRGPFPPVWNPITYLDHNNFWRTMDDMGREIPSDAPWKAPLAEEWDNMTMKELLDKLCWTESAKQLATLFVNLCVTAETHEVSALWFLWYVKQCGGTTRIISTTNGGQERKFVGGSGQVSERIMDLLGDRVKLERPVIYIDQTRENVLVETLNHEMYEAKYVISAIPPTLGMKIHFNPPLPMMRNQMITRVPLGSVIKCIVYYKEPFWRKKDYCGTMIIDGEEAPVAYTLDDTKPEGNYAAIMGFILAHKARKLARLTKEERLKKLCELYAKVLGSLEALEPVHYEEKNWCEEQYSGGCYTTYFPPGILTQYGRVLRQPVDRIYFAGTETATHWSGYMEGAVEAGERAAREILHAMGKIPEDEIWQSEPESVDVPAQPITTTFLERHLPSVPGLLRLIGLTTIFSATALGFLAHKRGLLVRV
The data set can be described thus: Time-dependent inhibition of recombinant human MAO-B assessed as reduction in 4-hydroxyquinoline formation at 0.2 uM using kynuramine as substrate preincubated up to 15 mins followed by substrate addition by fluorometric assay.

In data set [5] the target is T1, Amine oxidase [flavin-containing] A. Description: Inhibition of recombinant human MAO-A at 15 uM after 20 mins relative to control.
Data set [6] deals with T2, Amine oxidase [flavin-containing] B. Description: Inhibition of recombinant human MAO-B at 5 uM after 20 mins relative to control.
The target of data set [7] is T1, Amine oxidase [flavin-containing] A. The data set can be described thus: Reversible inhibition of recombinant human MAO-A assessed as recovery of enzyme activity at 15 uM preincubated for 20 mins followed by overnight dialysis relative to control. The arrangement: scale not given: the % may be the effect or the level left. The settings on record: read-out: Activity.

For data set [8], the target named is T2, Amine oxidase [flavin-containing] B. Description: Reversible inhibition of recombinant human MAO-B assessed as recovery of enzyme activity at 5 uM preincubated for 20 mins followed by overnight dialysis. The arrangement: scale not given: the % may be the effect or the level left.
Data set [9] addresses T1, Amine oxidase [flavin-containing] A. Description: Inhibition of recombinant human MAO-A after 30 mins.
Data set [10] deals with T2, Amine oxidase [flavin-containing] B. The data set can be described thus: Inhibition of recombinant human MAO-B after 30 mins.

As usually defined, the IC50 is the point on the concentration scale where inhibition reaches its midpoint. The term Ki denotes the equilibrium dissociation constant of an inhibitor or competing ligand from its target. As usually defined, the inhibition is the relative decrease from the control value, in per cent. `COc1ccc(-c2cc(=O)c3c(O)cc(O)cc3o2)cc1` [ACACETIN]: in data set [1], the IC50 was 0.121 µM. Moreover, in data set [2], the Ki was 0.0592 µM. For the same molecule, the TDI entry in data set [3] and in data set [4] was “Not Active” each time. In data set [5], the inhibition at 15 µM was greater than 95%. For the same molecule, the “inhibition (INH)” value in [6] worked out at 90%. Also, the activity at 15 µM in data set [7] was greater than 90%. In addition, the Activity in data set [8] came to 90%.

As for `O=C1C[C@@H](c2ccc(O)cc2)Oc2cc(O)cc(O)c21` [NARINGENIN], the IC50 in [9] turned out to be 955 µM; in data set [10], 288 µM.
